The results in this text go back to patent publication US9452986B2, “6-heteroaryloxy- or 6-aryloxy-quinoline-2-carboxamides and method of use” (AbbVie Inc., priority 2014, dated 2016).

Sequence of recombinant human Nav1.7 (Q15858 whole entry): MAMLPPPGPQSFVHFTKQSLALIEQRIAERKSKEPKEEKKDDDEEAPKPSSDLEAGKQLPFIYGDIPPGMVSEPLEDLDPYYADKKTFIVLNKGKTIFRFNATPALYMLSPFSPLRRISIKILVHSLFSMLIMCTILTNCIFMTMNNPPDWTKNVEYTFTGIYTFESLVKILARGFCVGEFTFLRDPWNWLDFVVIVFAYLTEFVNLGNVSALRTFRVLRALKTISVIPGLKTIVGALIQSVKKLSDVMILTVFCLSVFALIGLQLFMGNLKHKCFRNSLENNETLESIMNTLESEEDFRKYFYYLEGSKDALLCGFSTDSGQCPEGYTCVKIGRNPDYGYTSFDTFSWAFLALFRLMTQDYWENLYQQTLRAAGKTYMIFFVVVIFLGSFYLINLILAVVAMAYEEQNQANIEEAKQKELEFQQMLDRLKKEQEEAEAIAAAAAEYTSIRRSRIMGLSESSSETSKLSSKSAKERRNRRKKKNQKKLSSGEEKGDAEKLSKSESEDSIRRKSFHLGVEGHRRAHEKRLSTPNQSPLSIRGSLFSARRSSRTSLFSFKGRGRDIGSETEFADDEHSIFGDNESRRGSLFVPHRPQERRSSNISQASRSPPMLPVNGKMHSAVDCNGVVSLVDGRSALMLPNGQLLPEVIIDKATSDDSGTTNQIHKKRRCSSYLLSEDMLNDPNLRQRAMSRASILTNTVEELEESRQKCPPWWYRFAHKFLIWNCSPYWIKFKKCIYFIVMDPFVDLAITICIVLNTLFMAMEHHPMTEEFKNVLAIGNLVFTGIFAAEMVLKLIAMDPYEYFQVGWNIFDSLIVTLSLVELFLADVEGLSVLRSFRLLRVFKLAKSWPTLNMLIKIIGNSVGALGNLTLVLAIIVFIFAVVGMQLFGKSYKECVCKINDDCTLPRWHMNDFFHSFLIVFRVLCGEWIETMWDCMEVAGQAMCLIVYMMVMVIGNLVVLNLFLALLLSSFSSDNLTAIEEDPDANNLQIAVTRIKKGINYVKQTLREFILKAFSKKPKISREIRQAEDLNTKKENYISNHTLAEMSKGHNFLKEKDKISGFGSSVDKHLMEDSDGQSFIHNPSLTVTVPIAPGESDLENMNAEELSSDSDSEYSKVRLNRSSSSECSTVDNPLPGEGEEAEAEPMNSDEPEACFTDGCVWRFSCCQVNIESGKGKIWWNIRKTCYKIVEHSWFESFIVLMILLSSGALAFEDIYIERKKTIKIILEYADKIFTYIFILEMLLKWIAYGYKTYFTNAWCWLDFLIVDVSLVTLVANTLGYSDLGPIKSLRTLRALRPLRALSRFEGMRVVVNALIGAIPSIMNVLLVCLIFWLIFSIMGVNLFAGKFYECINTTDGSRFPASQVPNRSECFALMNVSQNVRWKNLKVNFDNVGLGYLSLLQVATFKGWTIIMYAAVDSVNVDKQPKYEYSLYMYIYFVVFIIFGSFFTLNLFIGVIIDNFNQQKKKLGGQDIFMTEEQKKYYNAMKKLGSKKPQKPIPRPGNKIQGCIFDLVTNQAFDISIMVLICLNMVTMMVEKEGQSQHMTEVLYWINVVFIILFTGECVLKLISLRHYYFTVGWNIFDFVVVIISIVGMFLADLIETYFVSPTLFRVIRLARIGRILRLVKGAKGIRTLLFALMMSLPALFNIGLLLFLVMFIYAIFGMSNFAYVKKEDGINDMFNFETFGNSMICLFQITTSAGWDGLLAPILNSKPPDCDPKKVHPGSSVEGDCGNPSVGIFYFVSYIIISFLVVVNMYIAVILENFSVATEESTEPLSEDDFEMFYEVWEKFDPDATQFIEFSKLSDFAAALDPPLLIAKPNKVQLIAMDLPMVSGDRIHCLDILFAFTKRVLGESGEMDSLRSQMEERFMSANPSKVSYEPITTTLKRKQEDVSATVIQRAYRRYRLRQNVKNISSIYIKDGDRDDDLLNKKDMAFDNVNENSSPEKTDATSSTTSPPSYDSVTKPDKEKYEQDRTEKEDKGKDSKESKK

For the first assay, the target named is recombinant human Nav1.7 (Homo sapiens (Human), UniProt Q15858). Briefly: FRET-based membrane potential assay, recombinant human sodium channel Nav1.7. The following applies: HEK293 cells stably expressing recombinant human Nav1.7; veratridine + scorpion venom depolarization; read-out: FRET-Membrane Potential Nav1.7 IC50. It counts as cell-based. An outline of the steps:
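Channel activation used veratridine at its EC80, set by a dilution curve each experiment, together with Leiurus scorpion venom, added 3 min after compound. Membrane-potential ratio signals from FLIPR Tetra in HEPES-buffered HBSS were fitted to a four-parameter Hill equation for percent inhibition and IC50.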
In the case of `O=C(c1ccc2cc(Oc3ccc(C(F)(F)F)cn3)ccc2n1)N1CCN(S(=O)(=O)CCC(F)(F)F)CC1` [Example 332, (6-{[5-(trifluoromethyl)pyridin-2-yl]oxy}quinolin-2-yl) {4-[(3,3,3-trifluoropropyl)sulfonyl]piperazin-1-yl}methanone], the IC50 (usually the concentration that gives 50% inhibition) stood at 10100 nM. Take `O=C(c1ccc2cc(Oc3ccc(C(F)(F)F)cn3)ccc2n1)N1CCN2C(=O)OC[C@H]2C1` [Example 333, (8aR)-7-[(6-{[5-(trifluoromethyl)pyridin-2-yl]oxy}quinolin-2-yl)carbonyl]hexahydro[1,3]oxazolo[3,4-a]pyrazin-3-one]: the IC50 is above 20000 nM. Same read-out and setting: as for `CC(C)(O)CCNC(=O)c1ccc2cc(Oc3ccc(C(F)(F)F)cn3)ccc2n1` [Example 334, N-(3-hydroxy-3-methylbutyl)-6-{[5-(trifluoromethyl)pyridin-2-yl]oxy}quinoline-2-carboxamide], the figure is 3440 nM; as for `O=C(NC[C@H]1CCCN1)c1ccc2cc(Oc3ccc(C(F)(F)F)cn3)ccc2n1` [Example 335, N-[(2R)-pyrrolidin-2-ylmethyl]-6-{[5-(trifluoromethyl)pyridin-2-yl]oxy}quinoline-2-carboxamide], 573 nM. On the same count and under the same terms, as for `O=C(NCC1(O)CCC1)c1ccc2cc(Oc3ccc(C(F)(F)F)cn3)ccc2n1` [Example 336, N-[(1-hydroxycyclobutyl)methyl]-6-{[5-(trifluoromethyl)pyridin-2-yl]oxy}quinoline-2-carboxamide], the figure is 439 nM. Same read-out and setting: as for `NCCNC(=O)c1ccc2cc(Oc3ccc(C(F)(F)F)cn3)ccc2n1` [Example 338, N-(2-aminoethyl)-6-{[5-(trifluoromethyl)pyridin-2-yl]oxy}quinoline-2-carboxamide], the figure is 984 nM. Regarding `O=C(c1ccc2cc(Oc3ccc(C(F)(F)F)cn3)ccc2n1)N1CCOC(CO)C1` (stereo not drawn) [Example 339, [2-(hydroxymethyl)morpholin-4-yl](6-{[5-(trifluoromethyl)pyridin-2-yl]oxy}quinolin-2-yl)methanone], the IC50 was 14400 nM. On the same count and under the same terms, as for `O=C(c1ccc2cc(Oc3ccc(C(F)(F)F)cn3)ccc2n1)N1CCOC(CF)C1` (stereo not drawn) [Example 340, [2-(fluoromethyl)morpholin-4-yl](6-{[5-(trifluoromethyl)pyridin-2-yl]oxy}quinolin-2-yl)methanone], the figure is 2900 nM. Still for that read-out and setting: the figure for `O=C(c1ccc2cc(Oc3ccc(C(F)(F)F)cn3)ccc2n1)N1CCC2(CCC2O)CC1` (stereo not drawn) [Example 341, (1-hydroxy-7-azaspiro[3.5]non-7-yl)(6-{[5-(trifluoromethyl)pyridin-2-yl]oxy}quinolin-2-yl)methanone] is 4230 nM; for `O=C(c1ccc2cc(Oc3ccc(C(F)(F)F)cn3)ccc2n1)N1CCc2nc[nH]c(=O)c2C1` [Example 342, 6-[(6-{[5-(trifluoromethyl)pyridin-2-yl]oxy}quinolin-2-yl)carbonyl]-5,6,7,8-tetrahydropyrido[4,3-d]pyrimidin-4(3H)-one] it is 3380 nM; for `O=C1CN(C(=O)c2ccc3cc(Oc4ccc(C(F)(F)F)cn4)ccc3n2)CCCN1` [Example 343, 4-[(6-{[5-(trifluoromethyl)pyridin-2-yl]oxy}quinolin-2-yl)carbonyl]-1,4-diazepan-2-one] it is above 20000 nM.

As for `O=C(c1ccc2cc(Oc3ccc(C(F)(F)F)cn3)ccc2n1)N1CCC2(CC(O)C2)C1` (stereo not drawn) [Example 345, (2-hydroxy-6-azaspiro[3.4]oct-6-yl)(6-{[5-(trifluoromethyl)pyridin-2-yl]oxy}quinolin-2-yl)methanone], the IC50 is 9150 nM. Still for that read-out and setting: as for `O=C(NCCF)c1ccc2cc(Oc3ccc(C(F)(F)F)cn3)ccc2n1` [Example 346, N-(2-fluoroethyl)-6-{[5-(trifluoromethyl)pyridin-2-yl]oxy}quinoline-2-carboxamide], the figure is 2500 nM; as for `O=C(NCC(F)F)c1ccc2cc(Oc3ccc(C(F)(F)F)cn3)ccc2n1` [Example 347, N-(2,2-difluoroethyl)-6-{[5-(trifluoromethyl)pyridin-2-yl]oxy}quinoline-2-carboxamide], 2630 nM; as for `CS[C@H]1CN(C(=O)c2ccc3cc(Oc4ccc(C(F)(F)F)cn4)ccc3n2)C[C@@H]1O` [Example 348, [(3S,4S)-3-hydroxy-4-(methylsulfanyl)pyrrolidin-1-yl](6-{[5-(trifluoromethyl)pyridin-2-yl]oxy}quinolin-2-yl)methanone], 3900 nM. Same read-out and setting: as for `O=C(NC1CCCS(=O)(=O)C1)c1ccc2cc(Oc3ccc(C(F)(F)F)cn3)ccc2n1` (stereo not drawn) [Example 349, N-(1,1-dioxidotetrahydro-2H-thiopyran-3-yl)-6-{[5-(trifluoromethyl)pyridin-2-yl]oxy}quinoline-2-carboxamide], the figure is 3250 nM; as for `O=C(c1ccc2cc(Oc3ccc(C(F)(F)F)cn3)ccc2n1)N1CCC2(CC1)CC(O)C2` [Example 354, (2-hydroxy-7-azaspiro[3.5]non-7-yl)(6-{[5-(trifluoromethyl)pyridin-2-yl]oxy}quinolin-2-yl)methanone], 12400 nM. Still for that read-out and setting: as for `O=C(NCCC(F)(F)F)c1ccc2cc(Oc3ccc(C(F)(F)F)cn3)ccc2n1` [Example 355, 6-{[5-(trifluoromethyl)pyridin-2-yl]oxy}-N-(3,3,3-trifluoropropyl)quinoline-2-carboxamide], the figure is 1270 nM; as for `C[C@@H]1CN2C[C@@H](F)C[C@@H]2CN1C(=O)c1ccc2cc(Oc3ccc(C(F)(F)F)cn3)ccc2n1` [Example 357, [(3R,7S,8aR)-7-fluoro-3-methylhexahydropyrrolo[1,2-a]pyrazin-2(1H)-yl](6-{[5-(trifluoromethyl)pyridin-2-yl]oxy}quinolin-2-yl)methanone], 2720 nM; as for `C[C@@H]1CN2CC(F)(F)C[C@@H]2CN1C(=O)c1ccc2cc(Oc3ccc(C(F)(F)F)cn3)ccc2n1` [Example 358, [(3R,8aR)-7,7-difluoro-3-methylhexahydropyrrolo[1,2-a]pyrazin-2(1H)-yl](6-{[5-(trifluoromethyl)pyridin-2-yl]oxy}quinolin-2-yl)methanone], 1310 nM. As to `O=C(NCC1COCCN1Cc1ccccc1)c1ccc2cc(Oc3ccc(C(F)(F)F)cn3)ccc2n1` (stereo not drawn) [Example 361, N-[(4-benzylmorpholin-3-yl)methyl]-6-{[5-(trifluoromethyl)pyridin-2-yl]oxy}quinoline-2-carboxamide], the IC50 was determined as 2880 nM. Consider `O=C(NCC1(O)CCOCC1)c1ccc2cc(Oc3ccc(C(F)(F)F)cn3)ccc2n1` [Example 362, N-[(4-hydroxytetrahydro-2H-pyran-4-yl)methyl]-6-{[5-(trifluoromethyl)pyridin-2-yl]oxy}quinoline-2-carboxamide], for which the IC50 stood at 1000 nM. For `O=C(NC[C@@H]1CCCN1)c1ccc2cc(Oc3ccc(C(F)(F)F)cn3)ccc2n1` [Example 363, N-[(2S)-pyrrolidin-2-ylmethyl]-6-{[5-(trifluoromethyl)pyridin-2-yl]oxy}quinoline-2-carboxamide], the IC50 was 1190 nM. The same measure, in the same setting: the figure for `CC1(C)CN(CCNC(=O)c2ccc3cc(Oc4ccc(C(F)(F)F)cn4)ccc3n2)C1` [Example 364, N-[2-(3,3-dimethylazetidin-1-yl)ethyl]-6-{[5-(trifluoromethyl)pyridin-2-yl]oxy}quinoline-2-carboxamide] is 370 nM; for `O=C(NCCN1CCSCC1)c1ccc2cc(Oc3ccc(C(F)(F)F)cn3)ccc2n1` [Example 365, N-[2-(thiomorpholin-4-yl)ethyl]-6-{[5-(trifluoromethyl)pyridin-2-yl]oxy}quinoline-2-carboxamide] it is 356 nM; for `C=CCN(C)C(=O)c1ccc2cc(Oc3ccc(C(F)(F)F)cn3)ccc2n1` [Example 366, N-allyl-N-methyl-6-{[5-(trifluoromethyl)pyridin-2-yl]oxy}quinoline-2-carboxamide] it is 3180 nM.

The same assay, now with this note: read-out: FRET-Membrane Potential Nav1.7 IC50.
In the case of `O=C(N[C@@H]1CCNC1)c1ccc2cc(Oc3ccc(C(F)(F)F)cn3)ccc2n1` [Example 331, N-[(3R)-pyrrolidin-3-yl]-6-{[5-(trifluoromethyl)pyridin-2-yl]oxy}quinoline-2-carboxamide], the 50% inhibitory concentration (IC50) was found to be 2640 nM. The same measure, in the same setting: as for `O=C(NCCN1CCCC1=O)c1ccc2cc(Oc3ccc(C(F)(F)F)cn3)ccc2n1` [Example 337, N-[2-(2-oxopyrrolidin-1-yl)ethyl]-6-{[5-(trifluoromethyl)pyridin-2-yl]oxy}quinoline-2-carboxamide], the figure is 1660 nM; as for `O=C(c1ccc2cc(Oc3ccc(C(F)(F)F)cn3)ccc2n1)N1CCC2(C1)OCCO2` [Example 352, 1,4-dioxa-7-azaspiro[4.4]non-7-yl(6-{[5-(trifluoromethyl)pyridin-2-yl]oxy}quinolin-2-yl)methanone], 3280 nM. On the same count and under the same terms, the figure for `CON=C1CCN(C(=O)c2ccc3cc(Oc4ccc(C(F)(F)F)cn4)ccc3n2)CC1` [Example 353, [4-(methoxyimino)piperidin-1-yl](6-{[5-(trifluoromethyl)pyridin-2-yl]oxy}quinolin-2-yl)methanone] is 3630 nM; for `O=C(c1ccc2cc(Oc3ccc(C(F)(F)F)cn3)ccc2n1)N1CCN2C[C@@H](F)C[C@@H]2C1` [Example 356, [(7S,8aR)-7-fluorohexahydropyrrolo[1,2-a]pyrazin-2(1H)-yl](6-{[5-(trifluoromethyl)pyridin-2-yl]oxy}quinolin-2-yl)methanone] it is 3360 nM. On the same count and under the same terms, as for `O=C(c1ccc2cc(Oc3ccc(C(F)(F)F)cn3)ccc2n1)N1CCN2C[C@@H](F)C[C@H]2C1` [Example 359, [(7S,8aS)-7-fluorohexahydropyrrolo[1,2-a]pyrazin-2(1H)-yl](6-{[5-(trifluoromethyl)pyridin-2-yl]oxy}quinolin-2-yl)methanone], the figure is 4710 nM; as for `O=C(c1ccc2cc(Oc3ccc(C(F)(F)F)cn3)ccc2n1)N1CCc2[nH]cnc2C1` [Example 360, 1,4,6,7-tetrahydro-5H-imidazo[4,5-c]pyridin-5-yl(6-{[5-(trifluoromethyl)pyridin-2-yl]oxy}quinolin-2-yl)methanone], 1090 nM.
